In ChEMBL document CHEMBL1150237, “Synthesis of indoleamine 2,3-dioxygenase inhibitory analogues of the sponge alkaloid exiguamine A” (J Med Chem, 2008):
Activity calls are given as the source filed them. No cut-off for these calls is given here.

Experiments:
[1] = target: T1, Indoleamine 2,3-dioxygenase 1 (Homo sapiens, UniProt P14902); assay: Inhibition of human recombinant indoleamine 2,3-dioxygenase
Target sequence in this assay (P14902 whole entry): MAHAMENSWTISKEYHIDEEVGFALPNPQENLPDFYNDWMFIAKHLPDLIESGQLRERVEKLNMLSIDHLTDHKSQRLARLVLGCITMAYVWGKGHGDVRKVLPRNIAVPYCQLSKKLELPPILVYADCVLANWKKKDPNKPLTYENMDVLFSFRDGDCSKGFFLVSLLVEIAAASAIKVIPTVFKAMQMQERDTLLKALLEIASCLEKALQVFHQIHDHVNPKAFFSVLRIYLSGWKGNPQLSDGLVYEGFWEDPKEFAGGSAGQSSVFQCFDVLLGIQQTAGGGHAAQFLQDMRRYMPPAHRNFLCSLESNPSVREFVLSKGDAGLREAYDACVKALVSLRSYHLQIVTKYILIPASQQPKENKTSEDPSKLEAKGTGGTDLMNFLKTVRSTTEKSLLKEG

[2] = target: T1, Indoleamine 2,3-dioxygenase 1; assay: Inhibition of human recombinant indoleamine 2,3-dioxygenase at =< 500000 nM
Target sequence in this assay (P14902 whole entry, looked up): as the sequence (P14902 whole entry) above

Ki [1]	Activity [2]	Compound
0.19 µM	–	O=C1C=CC(=O)c2[nH]ccc21
1.49 µM	–	O=C(NCCc1c[nH]c2c1C(=O)C=CC2=O)OCc1ccccc1
–	inactive	Oc1cccc2[nH]ccc12
–	inactive	NCCc1c[nH]c2c1C(=O)c1c(c(-c3ccccc3)c3ccccc3c1-c1ccccc1)C2=O
